From patent publication US10980768B2, “Composition containing carboplatin and use” (SYN-NAT PRODUCTS ENTERPRISE LLC, priority 2015, dated 2021)
Read-outs that look alike come from different tables or passages of the source.

Legend:
[1] = tested on: HL-60 cells; experiment: Cell viability (MTS) assay in HL-60 cells, leukemia study; assay type: cell-based; settings: HL-60 human promyelocytic leukemia cells, OD490 cell viability
[2] = tested on: K562 cells; experiment: Cell viability (MTS) assay in K562 cells, leukemia study; assay type: cell-based, human; settings: for toxicity: K562 cells, result in words; for IC50: K562 human myelogenous leukemia cells, OD490 cell viability
[3] = tested on: HEK293 cells; experiment: Cell viability (MTS) assay in HEK293 cells, leukemia study; settings: for IC50: Homo sapiens, HEK293; for toxicity: HEK293 cells, leukemia study, result in words
[4] = tested on: HL-7002 cells; settings: leukemia study; for IC50: HL-7002 human fetal hepatic cells
Method: After comparison of OD490 values of the tested agents and the control agents, an index of relative repression rate of cell proliferation was obtained. The IC50 value was calculated by using the SPSS16.0 software.
The cells were cultured in RPMI+5% Fetal Bovine Serum (FBS).
Cells treated with the solvents were used as negative controls, and carboplatin, etiposide and MTX were used as the positive controls. The cells were monitored daily, and the cell viability was evaluated with the Promega CellTiter 96 AQueous One Solution Cell Proliferation Assay (Promega, Madison, Wis., USA) according to the manufacture manuals. The cell viability was monitored at OD490 reading in a bio-spectrometer (Perkin Elmer, Walthan, Mass., USA).
Data analysis: The OD490 reading data were collected hourly from 1 h to 4 h after the addition of lysis buffer. The index of cell growth repression ratio was obtained by comparing the OD490 data of treatment to the negative control. The drug response rate IC50 was calculated with the SPSS 16.0 software.

[5] = tested on: A498 cells; experiment: Cell viability (MTS) assay in A498 cells, renal adenocarcinoma study; assay type: cell-based; settings: A498 renal carcinoma cells, OD490 cell viability
Source text: (§1) Cell culture: A498 and ACHN cells were purchased from Tongbai Bio (Shanghai, China).

[6] = tested on: ACHN cells; experiment: Cell viability (MTS) assay in ACHN cells, renal adenocarcinoma study; assay type: cell-based; settings: ACHN renal carcinoma cells, OD490 cell viability
Source text: as §1

[7] = tested on: HEK293 cells; experiment: Cell viability (MTS) assay in HEK293 cells, renal adenocarcinoma study; assay type: cell-based, human; settings: HEK293 normal embryonic kidney cells
[8] = tested on: melanoma; experiment: Case of a melanoma patient with multiple metastases in the brain and adrenal gland treated with DCP solution; assay type: in vivo, human
Source text: The following case summarizes DCP's pharmaceutical use on a melanoma patient with multiple metastases in the brain and adrenal grand. A metastatic tumor mass firstly was detected at the right frontal and parietal lobe of a patient's brain by MRI, and was removed by surgery in one month later. However, a new tumor mass with edema around it was detected at the left of parietal lobe. The tumor grew bigger, and the edema around the tumor became worse about two months after the new tumor was detected. The patient was treated with DCP solution (150 mg of DCP in 250 mL aqueous solution one time for every three days) for about three weeks.
The left lateral ventricle was compressed. The sign of removed tumors could be distinguished at the right frontal and parietal lobe, and the postoperative repair was found in the right frontal parietal bone. The midline structure shifted to the right side.
After treatment with DCP solution for about three weeks, the patient was examined (FIG. 10). […] The tumors at the right frontal and parietal lobe were removed, and the midline structure was normal.

[9] = tested on: HL-7002 cells; experiment: Cell viability (MTS) assay in HL-7002 cells, renal adenocarcinoma study
[10] = after DCP solution for about three weeks
[11] = melanoma brain metastasis, 150 mg DCP in 250 mL every three days for about three weeks
[12] = HL-7002 normal hepatocytes, renal adenocarcinoma study

Row | Compound | IC50 [1] | toxicity [2] | IC50 [3] | IC50 [2] | toxicity [3] | IC50 [5] | IC50 [6] | IC50 [7] | IC50 [4] | IC50 [9, 12] | also measured
1 | CN(Cc1cnc2nc(N)nc(N)c2n1)c1ccc(C(=O)N[C@@H](CCC(=O)O)C(=O)O)cc1 [MTX, Methotrexate] | 15.3 µM | did not show any toxicity | 17.6 µM | – | – | – | – | – | – | – | toxicity ([4]; HL-7002 cells, result in words): little toxicity
2 | dicycloplatin [DCP] | 18.6 µM | – | – | 812 µM | no toxicity | 20.9 µM | 15.4 µM | 463 µM | 503 µM | 1470 µM | edema around the tumor, post-chemo CT [8, 10]: significantly relieved; tumor mass at the left of parietal lobe, post-chemo CT vs pre-chemo CT [8, 10]: shrunk; edema around the tumor by MRI [8, 11]: relieved; tumor mass by MRI [8, 11]: shrunk; cellular toxicity lower than 5-FU ([9]; HL-7002 and HEK293 normal cells, compared to 5-FU): 4 fold
3 | N.N.O=C([O-])C1(C(=O)[O-])CCC1.[Pt+2] [carboplatin] | 17.3 µM | – | – | 1210 µM | no toxicity | 18.4 µM | 11 µM | 410 µM | 503 µM | 1410 µM | –
4 | COc1cc([C@@H]2c3cc4c(cc3[C@@H](O[C@@H]3O[C@@H]5CO[C@@H](C)O[C@H]5[C@H](O)[C@H]3O)[C@H]3COC(=O)[C@H]23)OCO4)cc(OC)c1O [etoposide] | 15.3 µM | did not show any toxicity | 359 µM | – | – | – | – | – | 512 µM | – | –
5 | O=c1[nH]cc(F)c(=O)[nH]1 [5-FU, fluorouracil] | – | – | – | – | – | – | – | – | – | – | IC50 ([5]; Homo sapiens): 18.2 µM; IC50 ([6]; Homo sapiens): 6.45 µM; IC50 ([7]; Homo sapiens): 45 µM; IC50 ([9]; Homo sapiens, Hepatocyte): 356 µM
